Earlier results as cited in patent US6515198B2, “Use of purinergic receptor modulators and related reagents” (Syntex (U.S.A.) LLC, priority 2000, dated 2003).

Test system: bladder sensory afferents
Conditions: agents capable of desensitizing P2X3 receptor subunit responses

In the case of `Cc1ccc(C(=O)Nc2ccc(S(=O)(=O)O)c3cc(S(=O)(=O)O)cc(S(=O)(=O)O)c23)cc1NC(=O)c1cccc(NC(=O)Nc2cccc(C(=O)Nc3cc(C(=O)Nc4ccc(S(=O)(=O)O)c5cc(S(=O)(=O)O)cc(S(=O)(=O)O)c45)ccc3C)c2)c1` [suramin], the “effect on the activity of bladder sensory afferents” value is given as “decrease the activity of bladder sensory afferents”.
For `Nc1ncnc2c1ncn2[C@@H]1O[C@H](COP(=O)(O)CP(=O)(O)OP(=O)(O)O)[C@@H](O)[C@H]1O` [αβ-ATP], the “effect on the activity of bladder sensory afferents” value is given as “decrease the activity of bladder sensory afferents”.
